This is an account of results in patent US7393839B2, “Polymorphic antiviral nucleoside compounds” (Roche Palo Alto LLC, priority 2003, dated 2008).

Structures can show the parent of a compound that is named as a salt.

A short description of data set [1]: Accelerated stability study (Form A): temperature, humidity, light. In kind it is physicochemical. How it is done:
Stability samples were evaluated for appearance, water content, chemical stability using an HPLC method and physical stability using DSC, specific rotation and x-ray powder diffraction methods. Photochemical stability was assessed by comparison with a control sample that was wrapped in aluminum foil and set side by side with the light sample in the light chamber.
DSC Thermograms were collected using a 2920 Modulated DSC from Thermal Analyzer (TA) Instruments. The heating rate was 10° C./min with a nitrogen purge maintained throughout the run.
Chromatography was carried out on a Zorbax SB-CN, 4.6×150 mm, 3.5 μm column. A ternary solvent gradient was used comprised of (A) water, (B) acetonitrile and (C) 200 mM heptane sulfonic acid sodium salt, monohydrate with 1% phosphoric acid in water. To prepare 500 mL of the solution, dissolve 22.0 g of 1-heptane sulfonic acid sodium salt, monohydrate in about 400 mL of water. Add 5 mL of phosphoric acid, 85% and then dilute to a volume of 500 mL with water and mix thoroughly. A flow rate of 1.0 mL/m was used. The column was run isocratically with 90% A and 10% C for 5 m. A linear gradient to 20% A, 70% B and 10% C was run over 20 m. This mixture was run isocratically for an addition 5 m after which the solvent was ramped back to 90% A and […] over 2 m followed by 8 m to reequilibrate the column. The column was maintained at 40° C.

Data set [2] in a line: Vapor sorption analysis (hygroscopicity). In kind it is physicochemical. From the text:
Vapor sorption analysis was used to assess the hygroscopicity of the Form A polymorph. The experiment was run in an isothermal mode and the sample weight recorded as the relative humidity was varied. During the adsorption phase Ib gained 0.5 wt % between 5% relative humidity (RH) and 85% RH. […] At the end of the analysis the sample was still solid and appeared to be crystalline. After the TGA analysis a portion of the sample was recovered and analyzed by DSC. The DSC thermograms of the starting material and of the material recovered following vapor sorption analysis were superimposable.
The experimental protocol was set up to dry the sample at 60° C. for a maximum of 1 h or until an equilibrium condition was reached which fluctuated less then 0.02 wt % in 5 min. The experiment was run isothermally at 25° C., and the %RH was increased from 5% to 95% in 10% increments. After each increment the sample held constant until equilibrium was reached. Equilibrium was defined as a per cent weight change of not more than 0.005 wt % in 5.00 minutes. After reaching 95% RH the RH was lowered back to 5% RH. If equilibrium was not reached within 2 hours, the %RH was advanced to the next programmed level.

Data set [3] in a line: Thermal stability on modulated temperature x-ray diffractometer. In kind it is physicochemical. To be noted: for thermal stability of crystalline form: monohydrochloride.
A short description of data set [4]: Physical stability of Form B on storage. In kind it is physicochemical. As to conditions: ambient temperature, 25° C./60% RH, 30° C./60% RH, 40° C./75% RH, at least 4 weeks. From the text: The Form B-polymorph was crystallized from water and formed platelets (FIG. 3B). […] (FIG. 5B) corresponding to approximately one mole of water per mole of Ib.
Another data set is described as follows: Vacuum drying of Form B. It counts as physicochemical.
A further data set is described as follows: Bulk and tap density. It counts as physicochemical. As for the experimental part: The bulk density of Ib was determined Vanderkamp™ tap density tester, with an acoustic cabinet, or equivalent (Van-Kel Industries, Inc., 36 Meridian Road, Edison, N.J. 08820) apparatus following. Ib was passed through a 20 mesh. A powder funnel was placed on top of a cylinder and the powder was transferred rapidly in to the cylinder while avoiding agitation or tapping of the cylinder and the lower funnel. The sample weight in the cylinder was determined and the bulk density was calculated.
The tapped density was determined by measuring the volume of drug substance in a 25 mL graduated cylinder after 300 taps of a known amount of drug substance. The apparatus used was a VanderKamp Tapped Density Tester. The tapped density was calculated as the known weight of drug substance divided by the measured volume.

In the next data set the test system is HCV. To be noted: unlike ribavirin; cited from earlier work.
The test system of a further data set is Th1 cytokine expression. To be noted: antiviral Th1 cytokine expression; cited from earlier work.
The conditions of data set [5]: compared with ribavirin; cited from earlier work.
The mark [6] stands for this setting: Light Control (wrapped in aluminum foil), ICH Q1B.
Where [7] appears, read: heating from room temperature to 175° C.

Regarding “2-(S)-amino-3-methyl-butyric acid 5S-(3-carbamoyl-[1,2,4]triazol-1-yl)-3R,4S-dihydroxy-tetrahydrofuran-2S-yl methyl ester, monohydrochloride [Form A]”, the “% Purity (ext. std)” value in data set [1] (2–8° C., 3 months) was 99.9%; in data set [1] (2–8° C., 4 weeks), 100.4%; in data set [1] (25° C. 60% RH, 3 months) it was 99.8%; in data set [1] (25° C. 60% RH, 4 weeks) it was 100.2%; in data set [1] (30° C. 60% RH, 3 months), 100.2%; in data set [1] (30° C. 60% RH, 4 weeks) it was 100.7%. Also, the “% Purity (ext. std)” value in data set [1] (40° C. 75% RH, 3 months) came to 100.1%; in [1] (40° C. 75% RH, 4 weeks), 100.6%; in [1] (60° C., 3 months), 98.7%; in [1] (60° C., 4 weeks) it was 100.8%; in data set [1] (setting [6]), 100.9%; in [1] (Light, ICH Q1B) it was 100.9%. Also, in data set [1] (RT, Initial), the “% Purity (ext. std)” value is recorded as 98.1%. In addition, the Appearance entry in data set [1] (2–8° C., 3 months) is on record as “White to off-white”; in data set [1] (2–8° C., 4 weeks) it was “White crystalline”; in [1] (25° C. 60% RH, 3 months), “White to off-white”; in data set [1] (25° C. 60% RH, 4 weeks) it was “White crystalline”; in data set [1] (30° C. 60% RH, 3 months), “White to off-white”; in data set [1] (30° C. 60% RH, 4 weeks), “White crystalline”. The Appearance entry in [1] (40° C. 75% RH, 3 months) is recorded as “White to off-white”; in data set [1] (40° C. 75% RH, 4 weeks) it was “White crystalline”; in [1] (60° C., 3 months), “White to off-white”; in data set [1] (60° C., 4 weeks), “White crystalline”; in data set [1] (setting [6]) it was “White crystalline”; in data set [1] (Light, ICH Q1B) it was “White crystalline”. Moreover, the Appearance result in [1] (RT, Initial) was “White crystalline”. Further, in [2] (5%-95%-5% RH cycle, 25° C.), the hygroscopicity result is “not hygroscopic”. The “DSC thermograms of starting material and material recovered following vapor sorption analysis” value in data set [2] (after 5%-95%-5% RH cycle) is reported as “superimposable”. In [2] (between 5% RH and 85% RH, isothermal 25° C.), the “weight gained during adsorption phase” value was 0.5 wt %. In addition, the “weight increase during adsorption phase” value in data set [2] (between 85% and 95% RH, isothermal 25° C.) is on record as < 2.5 weight percent. Further, the “weight change during desorption phase” value in [2] (same %RH ranges, desorption) is “virtually all of the weight gained in the adsorption phase was lost”. In addition, the “thermal stability of crystalline form” value in data set [3] (setting [7]) is on record as “did not change its crystalline form”.
“2-(S)-amino-3-methyl-butyric acid 5S-(3-carbamoyl-[1,2,4]triazol-1-yl)-3R,4S-dihydroxy-tetrahydrofuran-2S-yl methyl ester, monohydrochloride [Form B]”: in data set [3] (from 32° C. to 140° C.), the “crystalline form after heating and cooling” value was “conversion of Form B into Form A”. Moreover, in [3] (setting [7]), the “temperature above which Form B was converted into Form A” value was “above 80 °C” and the “thermal stability of crystalline form” value is listed as “unstable”. Also, the “physical stability on storage” value in [4] is given as “physically stable”. Moreover, the “crystalline form after vacuum drying” value in the data set “Vacuum drying of Form B” (at elevated temperature) was “conversion of Form B to Form A”. Besides, the “crystalline form after vacuum drying” value in “Vacuum drying of Form B” (in the absence of heat) was “stable”.
As to `CC(C)C(N)C(=O)OC[C@@H]1O[C@H](n2cnc(C(N)=O)n2)[C@@H](O)[C@H]1O` (stereo partly drawn) [Ib, 2-(S)-amino-3-methyl-butyric acid 5S-(3-carbamoyl-[1,2,4]triazol-1-yl)-3R,4S-dihydroxy-tetrahydrofuran-2S-yl methyl ester, monohydrochloride], in data set [1] (over the study period, all storage conditions), the “change in DSC thermograms, specific rotation, water content, x-ray diffraction pattern and purity” value was “no discernable change”. Moreover, the bulk density in the data set “Bulk and tap density” was found to be 0.35 g/mL. This compound came in with a tapped density in “Bulk and tap density” (after 300 taps) of 0.58 g/mL.
With `NC(=O)c1ncn([C@H]2O[C@@H](CO)[C@H](O)[C@@H]2O)n1` [Levovirin, 1-(3S,4R-dihydroxy-5S-hydroxymethyl-tetrahydro-furan-2S-yl)-1H-[1,2,4]triazole-3-carboxylic acid amide], the direct antiviral activity result with HCV is recorded as “does not have direct detectable antiviral activity”. Further, the immune response entry in the data set on Th1 cytokine expression is reported as “stimulates immune responses by enhancing antiviral Th1 cytokine expression”. The toxicity result in [5] is given as “appears to lack toxicity associated with ribavirin”.
